Measurements as given in PubChem BioAssay AID2124 (Sanford-Burnham Center for Chemical Genomics, 2009).
Results filed as inconclusive are left out. Activity calls are given as the source filed them. How the calls were made is not given here; tested in MIN6 cells.

Tests used:
[1] = cell-permeable autofluorescent compounds in GFP channel, dose response, artefact control, imaging, high-content imaging (AID 2124); details: cells, GFP-channel autofluorescence, high-content imaging; cell count; at 10 µM;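 on cell count: cells exposed to compound for 48 hours before fixing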
[2] = test system: cells, GFP-channel autofluorescence, high-content imaging; assay: as above

SMILES	cell count [1]	EC50 [2]
COc1cc([C@@H]2[C@H]3CNCC=C3C(C#N)=C(N)C2(C#N)C#N)ccc1OC(C)C	3160 cells	13.6 µM (inactive)
Oc1ccc(/C=N/Nc2ccnc3cc(Cl)ccc23)c(O)c1	1690 cells	10.3 µM (inactive)
N#C/C(=C\c1ccc(N2CCOCC2)o1)C(=O)NCCc1ccccc1	3060 cells	8.69 µM
Cc1csc(NC(=O)c2sc3nc(-c4cccs4)ccc3c2N)n1	2840 cells	15.7 µM (inactive)
COc1cc([C@@H]2[C@H]3CN(C)CC=C3C(C#N)=C(N)C2(C#N)C#N)cc2c1OCO2	3070 cells	9.32 µM
CN1/C(=C\C=C(/C#N)C(=O)Nc2ccccc2F)C(C)(C)c2ccccc21	2910 cells	6.93 µM
COc1ccccc1N/C=C/c1onc(C)c1[N+](=O)[O-]	3140 cells	7.9 µM
N#C/C(=C\c1ccc(N2CCCCC2)o1)C(N)=O	3260 cells	12.2 µM (inactive)
COc1cccc(C2C3CN(C)CC=C3C(C#N)=C(N)C2(C#N)C#N)c1OC (configuration not stated)	2400 cells	7.38 µM
O=C1S/C(=C\c2ccc(N3CCOCC3)o2)C(=O)N1c1ccccc1	1060 cells	> 16 µM (inactive)
COc1cc(/C=C(\C#N)c2nc3ccccc3o2)ccc1O	3540 cells	2.62 µM
COc1ccc2nc(SCC(C)=O)c(C#N)cc2c1	2490 cells	7.2 µM
C=CCN1C(=O)c2cccc3c(N4CCCCC4)ccc(c23)C1=O	3300 cells	6.64 µM
N#Cc1c(NC(=S)NC(=O)c2ccccc2)sc2c1CCN(CCc1ccccc1)C2	2330 cells	5.79 µM
Cc1cc2c(C(F)(F)F)cc(=O)oc2c2c1NCCC2	3250 cells	6.77 µM
Cc1ccc(/C(C#N)=C\c2ccc(N3CCOCC3)o2)cc1	1110 cells	10.3 µM (inactive)
O=C(C1=C(O)C(=O)N(c2nccs2)C1c1ccccc1)c1cc2ccccc2o1 (configuration not stated)	2920 cells	8.55 µM
CC(C)N1CC=C2C(C#N)=C(N)C(C#N)(C#N)[C@H](c3ccoc3)[C@H]2C1	2840 cells	6.74 µM
CCN(CC)c1ccc2cc(-c3nc(-c4ccc(OC)cc4)cs3)c(=O)oc2c1	2750 cells	> 16 µM (inactive)
CCCN1C(=O)/C(=C/c2c(N3CCNC(=O)C3CC(=O)OCC)nc3c(C)cccn3c2=O)SC1=S (configuration not stated)	2790 cells	5.56 µM
Nc1c(C(=O)c2ccccc2)sc2nsc(SCCN3CCCC3)c12	2210 cells	7.98 µM

SMILES	cell count [1]	EC50 [2]
Cc1cc(/C=C2/C(=O)N(C)C(=S)N2C)ccc1N1CCCC1	2680 cells	3.02 µM
CCN(CC)c1ccc2cc(C(N)=O)/c(=N\NC(=O)c3ccncc3)oc2c1	3100 cells	9.35 µM
Cc1oc(C)c2c(=O)ccc3c(c12)OC(N)=C(C#N)C3c1ccc(F)cc1 (configuration not stated)	2880 cells	> 16 µM (inactive)
CC(=O)c1c(N2CCOCC2)[nH]c(-c2ccccc2)nc1=S	3510 cells	1.05 µM
CCOCCCNc1nc2c(C)cccn2c(=O)c1/C=C1\SC(=S)N(C(C)CC)C1=O (configuration not stated)	2910 cells	> 16 µM (inactive)
CCN(CC)c1ccc(/C=C(/C#N)C(=O)NC(C)C)o1	3080 cells	14.2 µM (inactive)
CCCN1C(=O)/C(=C/c2c(NCCCOC(C)C)nc3c(C)cccn3c2=O)SC1=S	2790 cells	> 16 µM (inactive)
CCCNc1c(F)c(F)c2c(C)c3ccccc3nc2c1F	3140 cells	10.9 µM (inactive)
COc1ccc(/C=C2\CC/C(=C\c3ccc(OC)cc3OC)C2=O)c(OC)c1	3090 cells	6.73 µM
C=CCN1C(=O)/C(=C/c2ccc(N(C)C)cc2)S/C1=N\c1nnc(CC)s1	2900 cells	5.38 µM
CN1CC=C2C(C#N)=C(N)C(C#N)(C#N)C(c3ccncc3)C2C1 (configuration not stated)	2850 cells	14.8 µM (inactive)
O=C1c2cccc3c(N4CCCCC4)ccc(c23)C(=O)N1c1ccccc1O	3140 cells	15.3 µM (inactive)
Cc1ccc(-c2cn3nc(-c4ccccc4)c(-c4ccccc4)nc3n2)cc1	3200 cells	6.02 µM
C/C(=N\Nc1ccc([N+](=O)[O-])cc1)c1cc2ccccc2o1	2980 cells	8.87 µM
N#C/C(=C/c1ccc(N2CCOCC2)o1)c1ccc(Cl)cc1	1320 cells	7.31 µM
O=C1c2cccc3c(O)ccc(c23)C(=O)N1Cc1ccccc1	2660 cells	> 16 µM (inactive)
C=CCN1C=CC(=CC=C(C#N)C#N)C=C1	2960 cells	8.1 µM
Nc1ccc2c(c1)Cc1cc([N+](=O)[O-])ccc1-2	2910 cells	4.22 µM
COc1cc2c(cc1OC)C1=CC(=O)C(=O)N1C(C)(C)C2	2990 cells	5.78 µM
Cn1cc(/C=C2\SC(=S)N(NC(=O)c3ccccc3Cl)C2=O)c2ccccc21	3740 cells	13.9 µM (inactive)
COc1ccc(CN=Cc2[nH]c3ccc(Br)c(Cl)c3c2O)cc1	3150 cells	> 16 µM (inactive)

SMILES	cell count [1]	EC50 [2]
CN(C)c1ccc(/C=C/C(=O)c2c(O)c3ccccc3oc2=O)cc1	3230 cells	> 16 µM (inactive)
CCN(CC)c1ccc(/C=C(\C#N)C(=O)c2ccc(Br)cc2)cc1	2740 cells	5.14 µM
CN1/C(=C\C=C2/SC(=S)NC2=O)C(C)(C)c2ccccc21	147 cells	6.13 µM
CCCN1C(=O)S/C(=C/c2ccc(N3CCOCC3)o2)C1=O	3210 cells	5.4 µM
CN1CC=C2C(C#N)=C(N)C(C#N)(C#N)C(c3cccc(Cl)c3Cl)C2C1 (configuration not stated)	3010 cells	11.9 µM (inactive)
CNC(=O)c1c(NC(=O)c2ccc(S(=O)(=O)N3CCCc4ccccc43)cc2)sc2c1CCN(C)C2	3190 cells	8.08 µM
CC(C)N1CC=C2C(C#N)=C(N)C(C#N)(C#N)C(c3ccccc3)C2C1 (configuration not stated)	3040 cells	8.22 µM
COc1ccc(C(=O)c2sc3nc(-c4ccccc4)ccc3c2N)cc1OC	2560 cells	1.87 µM
COc1ccc(NC(=O)/C(C#N)=C\c2ccc(N3CCOCC3)o2)cc1	3270 cells	11.6 µM (inactive)
Cc1cccc(N=Cc2[nH]c3ccc(Br)c(Cl)c3c2O)c1	3340 cells	> 16 µM (inactive)
C=CCN1C(=O)/C(=C\C=C2\N(C)c3ccccc3C2(C)C)SC1=S	2620 cells	6.86 µM
CN1CC=C2C(C#N)=C(N)C(C#N)(C#N)[C@H](c3ccoc3)[C@H]2C1	1690 cells	> 16 µM (inactive)
CCN1CC=C2C(C#N)=C(N)C(C#N)(C#N)C(CCc3ccccc3)C2C1 (configuration not stated)	3160 cells	9.3 µM
Cc1c(-c2ccc(O)cc2)nc2nc(-c3ccccc3)c(-c3ccccc3)nn12	3200 cells	> 16 µM (inactive)
O=C1c2cccc3c(O)ccc(c23)C(=O)N1Cc1ccco1	2850 cells	14.6 µM (inactive)
O=c1oc2cc(O)ccc2cc1-c1nc2c(s1)CCc1ccccc1-2	2720 cells	7.42 µM
CCCN1CCc2c(sc(NC(=S)NC(=O)c3ccccc3)c2C#N)C1	3200 cells	13.3 µM (inactive)
N#C/C(=C/c1ccc(N2CCOCC2)o1)C(=O)Nc1ccccc1	3080 cells	6.7 µM
CC1=C/C(=C\C=C(C#N)C#N)N(C)c2ccccc21	3120 cells	3.23 µM
O=[N+]([O-])c1ccc(N2N=C(c3ccco3)CC2c2ccccc2)cc1 (configuration not stated)	2840 cells	6.38 µM
O=C(O)c1cc(-c2ccc(/C=C3/SC(=S)N(Cc4ccccc4)C3=O)o2)ccc1Cl	2840 cells	7.47 µM

SMILES	cell count [1]	EC50 [2]
COc1ccc2c(n1)Sc1nc3ccccc3nc1N2	3030 cells	6.69 µM
Cc1cccn2c(=O)c(/C=C3\SC(=S)NC3=O)c(NCCCN3CCOCC3)nc12	2700 cells	9.39 µM
CN1CC=C2C(C#N)=C(N)C(C#N)(C#N)[C@H](c3cccs3)[C@H]2C1	2820 cells	> 16 µM (inactive)
COc1cc(OC)c(-c2c3cc(O)c(=O)cc-3oc3cc(O)c(O)cc23)cc1OC	3000 cells	13.5 µM (inactive)
CN(C)c1ccc(/C=C/C(O)=C2/C(=O)N(C)C3(C)CC2c2ccccc2O3)cc1 (configuration not stated)	2640 cells	7.25 µM
COCCN1C(=O)/C(=C/c2ccc(N3CCCC3)cc2)SC1=S	3330 cells	9.79 µM
COC(=O)c1cc2c(-c3ccccc3)c(C)c3ccccn3c-2c1C(=O)OC	2900 cells	11.3 µM (inactive)
CC(=O)Nc1ccc(N=Cc2c(O)c(C(=O)Nc3ccccc3)cc3ccccc23)cc1	1540 cells	11.1 µM (inactive)
O=C(OCCN1C(=O)c2cccc3c(N4CCOCC4)ccc(c23)C1=O)c1ccc(Cl)cc1Cl	1690 cells	6.84 µM
CCCCN1C(=O)/C(=C/C=C2\SCCN2C)SC1=S	2930 cells	6.67 µM
O=c1oc2c3c4c(cc2c(C(F)(F)F)c1CCN1CCOCC1)CCCN4CCC3	3400 cells	8.25 µM
CCCN1C(=O)/C(=C/C=C2\N(CC)c3ccccc3C2(C)C)SC1=S	3030 cells	2.71 µM
CC(C)/C=C1\CC/C(=C\c2ccc(N(C)C)cc2)C1=O	2850 cells	9.45 µM
Cc1c(N=C2N=C(NC(=O)c3cccs3)c3ccccc32)c(=O)n(-c2ccccc2)n1C	2570 cells	11.8 µM (inactive)
CC(C)(C)NC(=S)N/N=C\c1ccc(-c2ccc([N+](=O)[O-])cc2)o1	3000 cells	11.4 µM (inactive)
CCCN1C(=O)S/C(=C\c2ccc(N3CCOCC3)o2)C1=O	194 cells	> 16 µM (inactive)
N#C/C(=C\N1CCN(Cc2ccc3c(c2)OCO3)CC1)c1nc2ccccc2s1	3300 cells	10.7 µM (inactive)
Cc1ccc(N2C(=O)C3C(C(=O)c4ccccc4)=NN(c4ccccc4)C3C2=O)cc1 (configuration not stated)	2980 cells	> 16 µM (inactive)
